Patent US7015228B2, “4-amino-2-(2-pyridyl)pyrimidines as microbicidal active substances” (Ciba Specialty Chemicals Corporation, priority 2001, dated 2006)
Values after ≈ are worked out from the molar mass of the structure shown.

Legend:
Type in all cases: cell-based
[1] = system: Salmonella choleraesuis ATCC 10708; assay: Minimum inhibitory concentration (MIC), further microorganisms; conditions: Table 8
How it was run: (§1)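 Broth microdilution in DMSO, 1:2 series; inocula adjusted to 1–5×10^6 CFU/ml then diluted 1:100 in CASO broth (bacteria, yeast) or Sabouraud 2% glucose broth (mould). Incubation 48 h at 37° C or 5 days at 28° C; MIC = lowest concentration giving ≦20% growth versus control by OD 620 nm.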

[2] = system: Micrococcus luteus ATCC 9341; assay: as above; conditions: Table 8; * = significant inhibition of growth, but not complete inhibition
How it was run: as §1

[3] = system: Staphylococcus aureus ATCC 9144; assay: as above; conditions: Table 8; * = significant inhibition of growth, but not complete inhibition
How it was run: as §1

[4] = system: Aspergillus niger ATCC 6275; assay: as above; conditions: Table 8; * = significant inhibition of growth, but not complete inhibition
How it was run: as §1

[5] = system: Candida albicans ATCC 10231; assay: as above; conditions: Table 8; * = significant inhibition of growth, but not complete inhibition
How it was run: as §1

[6] = system: Epidermophyton floccosum DSM 10709; assay: as above; conditions: Table 8; * = significant inhibition of growth, but not complete inhibition
How it was run: as §1

[7] = system: Klebsiella pneumonia ATCC 4352; assay: as above; conditions: Table 8; * = significant inhibition of growth, but not complete inhibition
How it was run: as §1

[8] = system: S. epidermidis ATCC 12228; assay: as above; conditions: Table 8; * = significant inhibition of growth, but not complete inhibition
How it was run: as §1

[9] = system: Trichophyton mentagrophytes ATCC 9533; assay: as above; conditions: Table 8; * = significant inhibition of growth, but not complete inhibition
How it was run: as §1

[10] = system: Enterococcus hirae ATCC 10541; assay: as above; conditions: Table 8; * = significant inhibition of growth, but not complete inhibition
How it was run: as §1

[11] = system: Pseudomonas aeruginosa CIP A-22; assay: as above; conditions: Table 8
How it was run: as §1

[12] = system: Escherichia coli NCTC 8196; assay: Minimum inhibitory concentration (MIC) in microtitre plates; conditions: for Minimum inhibitory concentration (MIC) E. coli: Table 7, 48 hours at 37° C., MIC = ≦20% growth compared to control; for Minimum inhibitory concentration (MIC) E. coli NCTC 8196: Table 8, * = significant inhibition of growth, but not complete inhibition
How it was run: (§2)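 Compounds in DMSO, 1:2 dilution series; bacteria at 1–5×10^6 CFU/ml diluted 1:100 in CASO broth. Incubation 48 h at 37° C, growth read as OD 620 nm. MIC is the lowest concentration giving ≤20% growth relative to control; duplicates.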

[13] = system: Staphylococcus hominis DMS 20328; assay: as above; conditions: Table 7; 48 hours at 37° C.; MIC = ≦20% growth compared to control
How it was run: as §2

Row | Structure (SMILES) | Minimum inhibitory concentration (MIC) Salmonella choleraesuis ATCC 10708 [1] | Minimum inhibitory concentration (MIC) Micrococcus luteus ATCC 9341 [2] | Minimum inhibitory concentration (MIC) Staphylococcus aureus ATCC 9144 [3] | Minimum inhibitory concentration (MIC) Aspergillus niger ATCC 6275 [4] | Minimum inhibitory concentration (MIC) Candida albicans ATCC 10231 [5] | Minimum inhibitory concentration (MIC) Epidermophyton floccosum DSM 10709 [6] | Minimum inhibitory concentration (MIC) Klebsiella pneumonia ATCC 4352 [7] | Minimum inhibitory concentration (MIC) S. epidermidis ATCC 12228 [8] | Minimum inhibitory concentration (MIC) Trichophyton mentagrophytes ATCC 9533 [9] | Minimum inhibitory concentration (MIC) Enterococcus hirae ATCC 10541 [10] | Minimum inhibitory concentration (MIC) Pseudomonas aeruginosa CIP A-22 [11] | Minimum inhibitory concentration (MIC) E. coli [12] | Minimum inhibitory concentration (MIC) E. coli NCTC 8196 [12] | Minimum inhibitory concentration (MIC) S. hominis [13]
1 | COCCc1cc(NCCCCCCCCN)nc(-c2ccccn2)n1 [compound 77] | >60 µg/mL | >60 µg/mL | >60 µg/mL | >60 µg/mL | >60 µg/mL | >60 µg/mL | >60 µg/mL | >60 µg/mL | >60 µg/mL | >60 µg/mL | >60 µg/mL | 120 µg/mL (≈ 336 µM) | >60 µg/mL | 30 µg/mL (≈ 83.9 µM)
2 | CCCCCCCCCCCCNc1nc(-c2ccccn2)nc(C)c1CC [compound 12] | >60 µg/mL | <3.75 µg/mL | 15 µg/mL (≈ 39.2 µM) | >60 µg/mL | *60 μg/mL | *30 μg/mL | >60 µg/mL | *7.5 μg/mL | 60 µg/mL (≈ 157 µM) | 7.5 µg/mL (≈ 19.6 µM) | >60 µg/mL | 120 µg/mL (≈ 314 µM) | >60 µg/mL | 7.5 µg/mL (≈ 19.6 µM)
3 | CCCCCCCCCNc1cc(C)nc(-c2ccccn2)n1 [compound 22] | >60 µg/mL | <3.75 µg/mL | 7.5 µg/mL (≈ 24 µM) | 60 µg/mL (≈ 192 µM) | 15 µg/mL (≈ 48 µM) | *7.5 μg/mL | >60 µg/mL | <3.75 µg/mL | 15 µg/mL (≈ 48 µM) | <3.75 µg/mL | >60 µg/mL | 120 µg/mL (≈ 384 µM) | >60 µg/mL | 3.75 µg/mL (≈ 12 µM)
4 | CCCCCCCCCCCNc1nc(-c2ccccn2)nc(C)c1CC [compound 89] | >60 µg/mL | 1.9 µg/mL (≈ 5.16 µM) | 7.5 µg/mL (≈ 20.3 µM) | 30 µg/mL (≈ 81.4 µM) | 15 µg/mL (≈ 40.7 µM) | 15 µg/mL (≈ 40.7 µM) | 60 µg/mL (≈ 163 µM) | 7.5 µg/mL (≈ 20.3 µM) | *7.5 μg/mL | 7.5 µg/mL (≈ 20.3 µM) | >60 µg/mL | >120 µg/mL | >60 µg/mL | 3.75 µg/mL (≈ 10.2 µM)
5 | Cc1cc(NCCCCCCCCCCCCN)nc(-c2ccccn2)n1 [compound 19] | >60 µg/mL | 7.5 µg/mL (≈ 20.3 µM) | 60 µg/mL (≈ 162 µM) | >60 µg/mL | 7.5 µg/mL (≈ 20.3 µM) | >60 µg/mL | >60 µg/mL | 60 µg/mL (≈ 162 µM) | >60 µg/mL | 60 µg/mL (≈ 162 µM) | >60 µg/mL | 60 µg/mL (≈ 162 µM) | >60 µg/mL | 15 µg/mL (≈ 40.6 µM)
6 | CC(C)(C)c1cc(NCCCCCCCCCN)nc(-c2ccccn2)n1 [compound 54] | >60 µg/mL | 15 µg/mL (≈ 40.6 µM) | *60 μg/mL | >60 µg/mL | >60 µg/mL | >60 µg/mL | >60 µg/mL | >60 µg/mL | >60 µg/mL | >60 µg/mL | >60 µg/mL | 120 µg/mL (≈ 325 µM) | >60 µg/mL | 30 µg/mL (≈ 81.2 µM)
7 | Cc1cc(NCCCCCCCCCN)nc(-c2ccccn2)n1 [compound 18] | >60 µg/mL | >60 µg/mL | >60 µg/mL | >60 µg/mL | >60 µg/mL | >60 µg/mL | >60 µg/mL | >60 µg/mL | >60 µg/mL | >60 µg/mL | >60 µg/mL | >120 µg/mL | >60 µg/mL | 120 µg/mL (≈ 366 µM)
8 | COCCc1cc(NCCCCCCCCCN)nc(-c2ccccn2)n1 [compound 78] | >60 µg/mL | >60 µg/mL | *60 μg/mL | >60 µg/mL | >60 µg/mL | >60 µg/mL | >60 µg/mL | *60 μg/mL | >60 µg/mL | >60 µg/mL | >60 µg/mL | 60 µg/mL (≈ 161 µM) | >60 µg/mL | 15 µg/mL (≈ 40.4 µM)
